Among the test systems are CCRF-CEM leukemia; DMS 273 small cell lung; A549 NSCLC; NCI-H460 lung; M19-MEL melanoma; DLD-1 colon; SNB-78 CNS; M14 melanoma; MOLT-4 leukemia; OVCAR-4 ovarian; KM12 colon; PC-3 prostate.
What all share (experiment): NCI anticancer screen, dose series, 48 h

The values that follow come from PubChem BioAssay (NCI).

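Exposure lasted 48 hours, with cells grown in 96-well plates and compounds tested at five concentrations. Here, GI50 denotes the concentration required for 50% inhibition of growth. The concentration for full growth arrest is given as TGI.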 Where a SMILES comes first, the peptide text is derived from it. [ ]: non-standard residue; d: D form. The star is where a group is joined. Cbz = O=C(OCc1ccccc1)*; Aib = CC(C)(N)C(=O)O Where only a bound is given, the exact number is not on record here.

`CSc1nc(-c2ccccc2)nc(=[N+]2CCOCC2)s1`: the TGI is 62.6 µM in the assay on CCRF-CEM leukemia; more than 100 µM in the assay on DMS 273 small cell lung; more than 100 µM in the assay on A549 NSCLC; more than 100 µM with NCI-H460 lung; more than 100 µM in the assay with M19-MEL melanoma; more than 100 µM in the assay on DLD-1 colon. Also, the TGI with SNB-78 CNS, in the assay with M14 melanoma, in the assay on MOLT-4 leukemia, in the assay on OVCAR-4 ovarian and in the assay on KM12 colon was more than 100 µM in each case.
Consider `CC(C)(C)CC(C)(C)NCC(O)COc1ccc(C(C)(C)c2ccc(OCC(O)CNC(C)(C)CC(C)(C)C)cc2)cc1` (centres undefined), for which the TGI was 1.03 µM with CCRF-CEM leukemia; 3.38 µM in the assay with PC-3 prostate; 2.28 µM in the assay with DMS 273 small cell lung; 3.02 µM with A549 NSCLC; 0.782 µM with NCI-H460 lung; 2.88 µM in the assay with M19-MEL melanoma. The TGI came out at 2.06 µM in the assay with DLD-1 colon; 3.63 µM in the assay on SNB-78 CNS; 1.49 µM in the assay on M14 melanoma; 1.26 µM in the assay with MOLT-4 leukemia; 3.23 µM with OVCAR-4 ovarian; 2.31 µM in the assay with KM12 colon. Moreover, in the assay with PC-3 prostate, the GI50 was 1.88 µM.
For `O=S(=O)(O)c1cc(N=[N+]([O-])c2ccc(N=Nc3ccccc3)cc2S(=O)(=O)O)ccc1/C=C/c1ccc(N=[N+]([O-])c2ccc(N=Nc3ccccc3)cc2S(=O)(=O)O)cc1S(=O)(=O)O`, the TGI in the assay on CCRF-CEM leukemia, in the assay on DMS 273 small cell lung, in the assay with A549 NSCLC, in the assay on NCI-H460 lung, in the assay on M19-MEL melanoma and in the assay with DLD-1 colon was more than 100 µM each time. Moreover, the TGI with SNB-78 CNS, in the assay with MOLT-4 leukemia, in the assay on OVCAR-4 ovarian and in the assay on KM12 colon was more than 100 µM each time.
On to `O=[N+]([O-])c1ccc(Nc2cccc3c2[nH]c2c(-c4ccccc4)nccc23)c([N+](=O)[O-])c1`, for which the TGI in the assay on CCRF-CEM leukemia, with DMS 273 small cell lung, in the assay on A549 NSCLC, in the assay with NCI-H460 lung, in the assay with M19-MEL melanoma and in the assay on DLD-1 colon was more than 100 µM in each case. Further, the TGI in the assay with SNB-78 CNS, in the assay on MOLT-4 leukemia, in the assay on OVCAR-4 ovarian and in the assay with KM12 colon was more than 100 µM each time.
On to `COc1ccc(C2=NN(c3nsc4ccccc34)C(=O)CC2)cc1`, for which the TGI with CCRF-CEM leukemia, with DMS 273 small cell lung, in the assay on A549 NSCLC, in the assay with NCI-H460 lung, in the assay with M19-MEL melanoma and in the assay with SNB-78 CNS was more than 100 µM throughout. The TGI in the assay on M14 melanoma, in the assay with MOLT-4 leukemia, in the assay with OVCAR-4 ovarian and with KM12 colon was more than 100 µM each time.
As for `Cc1cc(OCC(O)CO)ccc1Cl` (centres undefined), the TGI in the assay with CCRF-CEM leukemia, with DMS 273 small cell lung, in the assay on A549 NSCLC, in the assay on NCI-H460 lung, in the assay on M19-MEL melanoma and with DLD-1 colon was more than 100 µM in each case. Further, the TGI with M14 melanoma, with MOLT-4 leukemia, with OVCAR-4 ovarian and in the assay on KM12 colon was more than 100 µM each time.
Take `Clc1ncnc2c1nc(C#Cc1ccccc1)n2C1CCCCO1` (centres undefined): the TGI is more than 100 µM in the assay with CCRF-CEM leukemia; 11.8 µM in the assay on PC-3 prostate; 4.04 µM in the assay with A549 NSCLC; 8.09 µM with NCI-H460 lung; 4.39 µM in the assay with M14 melanoma; 8.32 µM with MOLT-4 leukemia. Also, the TGI is 3.75 µM in the assay on OVCAR-4 ovarian and 3.05 µM in the assay on KM12 colon.
`CCC(C)N1CN(c2ccccc2)C2(CCN(CCCC3(c4ccc(F)cc4)OCCO3)CC2)C1=O` (centres undefined): the TGI is 15.3 µM in the assay on CCRF-CEM leukemia; 11.4 µM with PC-3 prostate; 23.2 µM in the assay on A549 NSCLC; 30.8 µM with NCI-H460 lung; more than 35.7 µM with M14 melanoma; 19.5 µM in the assay on MOLT-4 leukemia. Further, the TGI in the assay on OVCAR-4 ovarian is more than 49.4 µM; with KM12 colon, more than 50.6 µM.
In the case of `COc1ccc(/C=C(/c2ccc(OC)cc2)c2c(Cl)cc(Cl)c(/C(=C\c3ccc(OC)cc3)c3ccc(OC)cc3)c2N=Nc2ccccc2)cc1`, the TGI in the assay with CCRF-CEM leukemia, in the assay on PC-3 prostate, in the assay on A549 NSCLC, in the assay with NCI-H460 lung, in the assay with M14 melanoma and in the assay with MOLT-4 leukemia was more than 100 µM in each case. Besides, the TGI in the assay on OVCAR-4 ovarian and in the assay on KM12 colon was more than 100 µM each time.
Regarding `CC(C)(NC(=O)C(C)(C)NC(=O)OCc1ccccc1)C(=O)O` (Cbz-[Aib]-[Aib]-OH), the TGI in the assay on CCRF-CEM leukemia, in the assay with PC-3 prostate, in the assay on A549 NSCLC, in the assay on NCI-H460 lung, in the assay on M14 melanoma and in the assay with MOLT-4 leukemia was more than 100 µM each time. Also, the TGI in the assay on OVCAR-4 ovarian and in the assay on KM12 colon was more than 100 µM throughout.
On to `Cc1ccc(S(=O)(=O)N/N=C\c2c3ccccc3[n+](C)c3ccccc23)cc1`, for which the TGI was 44.2 µM with CCRF-CEM leukemia; 64.7 µM with DMS 273 small cell lung; more than 100 µM in the assay with A549 NSCLC; 50.3 µM in the assay on NCI-H460 lung; more than 100 µM in the assay on M19-MEL melanoma; more than 100 µM with DLD-1 colon. The TGI is more than 100 µM in the assay with SNB-78 CNS; 97.9 µM with M14 melanoma; 53.3 µM with MOLT-4 leukemia; more than 100 µM in the assay on OVCAR-4 ovarian; more than 100 µM in the assay on KM12 colon.
As to `O=C(O)C1CSC2(CCCN(Cc3ccccc3)C2)N1` (centres undefined), the TGI in the assay with CCRF-CEM leukemia was more than 79.6 µM; in the assay on PC-3 prostate, more than 100 µM; in the assay on A549 NSCLC, more than 100 µM; with NCI-H460 lung, more than 100 µM; with M14 melanoma, more than 100 µM; with MOLT-4 leukemia, more than 59.9 µM. Further, the TGI with OVCAR-4 ovarian and with KM12 colon was more than 100 µM in each case.
Consider `CCCCCCCCCCOc1ccc(N=Nc2nnc(-c3ccc(OCCCCC)cc3)s2)cc1`, for which the TGI in the assay with CCRF-CEM leukemia, with PC-3 prostate, with A549 NSCLC, in the assay with NCI-H460 lung, with M14 melanoma and with MOLT-4 leukemia was more than 100 µM in each case. In addition, the TGI with OVCAR-4 ovarian and in the assay on KM12 colon was more than 100 µM in each case.
Take `O=C(CN1CCN(c2ccccn2)CC1)N1CCCn2c1nc1ccccc1c2=O`: the TGI in the assay on CCRF-CEM leukemia, in the assay with PC-3 prostate, in the assay with A549 NSCLC, in the assay with NCI-H460 lung, in the assay on M14 melanoma and with MOLT-4 leukemia was more than 100 µM each time. Besides, the TGI in the assay on OVCAR-4 ovarian and in the assay on KM12 colon was more than 100 µM throughout.
For the molecule `CC1CN=C(c2ccc(CN3CCC(CCCC4CCN(Cc5ccc(C6=NCC(C)N6)cc5)CC4)CC3)cc2)N1` (centres undefined), the TGI is 67.4 µM in the assay with CCRF-CEM leukemia; more than 100 µM in the assay with PC-3 prostate; more than 100 µM in the assay with A549 NSCLC; 36.8 µM with NCI-H460 lung; more than 100 µM in the assay on M14 melanoma; 50.1 µM in the assay with MOLT-4 leukemia. In addition, the TGI in the assay on OVCAR-4 ovarian was determined as 57.1 µM; with KM12 colon it was 40 µM.
Turning to `O=C(O)c1cccc(S(=O)(=O)NN2C(=O)CSC2c2c(O)ccc3ccccc23)c1` (centres undefined), the TGI with CCRF-CEM leukemia is 46.4 µM; in the assay on PC-3 prostate, more than 100 µM; in the assay on A549 NSCLC it was more than 100 µM; with NCI-H460 lung it was more than 100 µM; in the assay with M14 melanoma it was more than 100 µM; in the assay on MOLT-4 leukemia it was 46.3 µM. Further, the TGI with OVCAR-4 ovarian is 83 µM; with KM12 colon it was more than 100 µM.
With `Cn1c(-c2c(C3=CC(=O)N(c4ccccc4)C3=O)c3ccccc3n2C)cc2ccccc21`, the TGI in the assay with CCRF-CEM leukemia, in the assay with PC-3 prostate, in the assay with A549 NSCLC, in the assay with NCI-H460 lung, in the assay with M14 melanoma and in the assay with MOLT-4 leukemia was more than 100 µM in each case. Also, the TGI with OVCAR-4 ovarian and with KM12 colon was more than 100 µM in each case.
As to `COC(=O)C(CNC(=O)/C=C/c1ccc(OC(C)=O)c(OC(C)=O)c1)NC(=O)/C=C/c1ccc(OC(C)=O)c(OC(C)=O)c1` (centres undefined), the TGI in the assay on CCRF-CEM leukemia is more than 100 µM; with PC-3 prostate, more than 100 µM; in the assay on A549 NSCLC, more than 100 µM; in the assay with NCI-H460 lung it was more than 100 µM; in the assay on M14 melanoma, more than 100 µM; in the assay with MOLT-4 leukemia, 81.5 µM. Also, the TGI in the assay on OVCAR-4 ovarian and in the assay with KM12 colon was more than 100 µM in each case.
In the case of `CSc1c(C)n([O-])c2cc(Cl)c(Cl)cc2[n+]1=O`, the TGI in the assay with CCRF-CEM leukemia is 4.58 µM; in the assay with PC-3 prostate, 38.9 µM; with A549 NSCLC, more than 100 µM; in the assay on NCI-H460 lung it was more than 100 µM; with M14 melanoma, 45.6 µM; in the assay on MOLT-4 leukemia it was 5.43 µM. For the same molecule, the TGI is 30.6 µM with OVCAR-4 ovarian and more than 60.7 µM in the assay on KM12 colon.
In the case of `COc1ccc(/N=N/C(=NNC(=O)c2ccc(C)cc2)c2ccc(N(C)C)cc2)cc1`, the TGI was more than 100 µM in the assay with CCRF-CEM leukemia; more than 100 µM with PC-3 prostate; more than 100 µM in the assay with A549 NSCLC; more than 100 µM with NCI-H460 lung; more than 100 µM in the assay on M14 melanoma; more than 72.5 µM in the assay with MOLT-4 leukemia. Moreover, the TGI in the assay with OVCAR-4 ovarian and in the assay with KM12 colon was more than 100 µM each time.
